The text below walks through data of patent US20230416261A1, “ETHANEDIAMINE-HETEROCYCLE DERIVATIVES AS INHIBITORS OF PROTEIN ARGININE METHYLTRANSFERASES” (Board of Regents, The University of Texas System, priority 2021, published 2023).

The target in assay [1] is T1, PRMT1 (Homo sapiens, UniProt Q99873). The experiment in a line: PRMT1 RKO Cellular Target Engagement Assay (In-Cell Western, asymmetric di-methyl arginine). Format: cell-based. The conditions noted are these: RKO cells, 48 hr compound incubation; read-out: RKO IC50 (PRMT-1 Target Engagement). The procedure, abridged: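 RKO cells (1,000/well) received 1:3 serially diluted compound for 48 h at 37 °C, then were fixed, permeabilised and immunostained for asymmetric di-methyl arginine by In-Cell Western. The 800 nm antibody signal was normalised to CellTag 700 nm; IC50 from four-parameter logistic fit.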
T1 sequence (Q99873 whole entry): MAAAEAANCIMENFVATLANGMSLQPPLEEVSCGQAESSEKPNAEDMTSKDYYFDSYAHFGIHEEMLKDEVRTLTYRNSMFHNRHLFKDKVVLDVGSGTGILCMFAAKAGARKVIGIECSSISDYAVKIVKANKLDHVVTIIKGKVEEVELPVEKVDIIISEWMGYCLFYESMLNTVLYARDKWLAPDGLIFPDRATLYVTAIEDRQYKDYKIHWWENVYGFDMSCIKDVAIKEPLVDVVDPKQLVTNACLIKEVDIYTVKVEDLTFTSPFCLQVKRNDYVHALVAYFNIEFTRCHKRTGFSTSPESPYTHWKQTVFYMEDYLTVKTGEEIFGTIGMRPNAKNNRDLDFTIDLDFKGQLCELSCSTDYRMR

The next assay concerns PATC53 cells. The experiment in a line: PATC53 Long Term Phenotypic Assay (14 days, crystal violet viability). The conditions noted are these: 336 h. Format: cell-based. On the procedure: PATC53 cells were derived from the PATC53 PDX model and kindly provided by Jason Fleming (MDACC). The cells were routinely maintained in DMEM/F12 Medium (Corning, Catalog #10-090-CV) supplemented with 10% fetal bovine serum (Sigma, Catalog #F2442), 100 units/mL penicillin and 100 μg/mL streptomycin (Gibco, Catalog #15140-122) in a humidified incubator (37° C., 5% CO2). Prior to the assay, cells were seeded onto a 12-well, TC treated plate (Corning, catalog #353043) at a density of 250 cells per well in a volume of 1 mL. The plate was incubated for 24 hours at 37° C. and 5% CO2. Stock solutions of the test compounds were prepared in 100% DMSO (Sigma, Catalog #D2650) and serially diluted 1:3 using 100% DMSO. Compounds were additionally diluted 1:100 in culture medium, and 110 μL/well was transferred to the tissue culture plate. Following the compound addition, the plate was incubated at 37° C. and 5% CO2 for 14 days. Viability was then assessed by crystal violet staining (Fisher Scientific, Catalog #C58125) as follows: 450 μL of crystal violet (1 mg/mL) was added to the plate for a 10 minute incubation at room temperature. After incubation, the plate was washed 3× with distilled water to remove excess dye and allowed to dry overnight. The crystal violet was solubilized using 10% HOAc (500 μL) for 10 minutes at room temperature, while shaking. A volume of 100 μL was then transferred to a 96-well SpectraPlate (Perkin Elmer, Catalog #6005649). Absorbance at 590 nm was measured with a BioTek Synergy Neo. IC50 values were calculated using a four-parameter logistic curve fit using Genedata Screener software.

The test system of a further assay is DOHH2 cells. The experiment in a line: DOHH2 Long Term Phenotypic Assay (7 days, Cell Titer-Glo viability). It counts as cell-based. Particulars: Homo sapiens, DOHH-2, 168 h, Cell Titer-Glo 2.0. In short, it runs like this:
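DOHH2 lymphoma cells (250 per well) in RPMI-1640 with 10% FBS were exposed to 1:3 serially diluted compounds for 7 days at 37 °C, 5% CO2. Viability was read by CellTiter-Glo 2.0 luminescence, and IC50 values came from four-parameter logistic fits.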
A general note: ATP-based viability assays read luminescence as a measure of living cells.

In assay [2] the target is T1, PRMT1. The experiment in a line: PRMT1 Enzymatic Assay (LANCE TR-FRET, methylation of histone H4 at Arg3). Set-up: purchased SignalChem P365-380G. The conditions noted are these: PRMT1 1.5 nM, SAM 1 μM, biotinylated histone H4 (1-21) 25 nM; read-out: PRMT-1 IC50. Format: biochemical. The procedure, abridged: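 PRMT1 (1.5 nM) preincubated 15 min with compound at room temperature, then reacted 1 h with 1 μM SAM and 25 nM biotinylated histone H4 (1-21) in 50 mM Hepes pH 8, 1 mM TCEP, 0.003% Tween-20. H4R3me detected by TR-FRET (665/620 nm ratio); IC50 from four-parameter logistic fit.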
Background: In TR-FRET formats the signal depends on donor and acceptor labels being close together.

Each structure is given as a SMILES string. pIC50: −log10 of the molar value.

With `CCOCC1(COCC)CCC(c2c(CN(C)CCNC)nn3c2CN(C(=O)C2CC2)CC3)CC1` [Example 4, (3-(4,4-bis(ethoxymethyl)-cyclohexyl)-2-((methyl(2-(methylamino)ethyl)amino)-methyl)-6,7-dihydropyrazolo-[1,5-a]pyrazin-5(4H)-yl)-(cyclopropyl)methanone], the negative-log IC50 (pIC50) on PRMT1 [1] is 6.96; in the assay on PATC53 cells it was 5.90; in the assay on DOHH2 cells, 7.33; on PRMT1 [2], 7.32.

`CNCCN(C)Cc1nn2c(c1C1CCC(COC)(COC)CC1)CN(C(=O)C1CC1)CC2` [Example 5, (3-(4,4-bis(methoxymethyl)-cyclohexyl)-2-((methyl(2-(methylamino)ethyl)amino)-methyl)-6,7-dihydropyrazolo-[1,5-a]pyrazin-5(4H)-yl)-(cyclopropyl)methanone]: the pIC50 is 6.92 on PRMT1 [1], 7.24 with PATC53 cells, 7.09 in the assay on DOHH2 cells and 7.47 at PRMT1 [2].

Consider `COCC1(COC)CCC(c2c(CN(C)CCN)nn3c2CN(C(=O)C2CC2)CC3)CC1` [Example 6, (2-(((2-aminoethyl)(methyl)-amino)methyl)-3-(4,4-bis-(methoxymethyl)cyclohexyl)-6,7-dihydropyrazolo[1,5-a]-pyrazin-5(4H)-yl)-(cyclopropyl)methanone], for which the pIC50 on PRMT1 [1] is 6.44; with PATC53 cells, 6.83; with DOHH2 cells, 6.86; on PRMT1 [2], 7.85.

On to `CNCCN(C)Cc1nn2c(c1C1CCC(COC)(COC)CC1)CN(C(=O)C(C)(C)C)CC2` [Example 8, 1-(3-(4,4-bis(methoxy-methyl)cyclohexyl)-2-((methyl(2-(methylamino)-ethyl)amino)methyl)-6,7-dihydropyrazolo[1,5-a]-pyrazin-5(4H)-yl)-2,2-dimethylpropan-1-one], for which the negative-log IC50 (pIC50) on PRMT1 [1] is 6.04; in the assay with PATC53 cells it was 7.00; in the assay with DOHH2 cells, 7.17; on PRMT1 [2] it was 7.44.

Take `COCC1(COC)CCC(c2c(CN(C)CCN)nn3c2CN(C(=O)C2CCC2)CC3)CC1` [Example 11, (2-(((2-aminoethyl)(methyl)-amino)methyl)-3-(4,4-bis-(methoxymethyl)cyclohexyl)-6,7-dihydropyrazolo[1,5-a]-pyrazin-5(4H)-yl)-(cyclobutyl)methanone]: the negative-log IC50 (pIC50) at PRMT1 [1] is 5.92; in the assay with PATC53 cells, 7.15; in the assay on DOHH2 cells it was 6.95; at PRMT1 [2] it was 7.80.

Take `CNCCN(C)Cc1nn2c(c1C1CCC(COC)(COC)CC1)CN(C(=O)C1(F)CC1)CC2` [Example 13, (3-(4,4-bis(methoxymethyl)-cyclohexyl)-2-((methyl(2-(methylamino)ethyl)amino)-methyl)-6,7-dihydropyrazolo-[1,5-a]pyrazin-5(4H)-yl)(1-fluorocyclopropyl)methanone]: the pIC50 was 6.65 at PRMT1 [1], 7.42 in the assay with PATC53 cells, 6.82 in the assay on DOHH2 cells and 7.25 on PRMT1 [2].

Regarding `CNCCN(C)Cc1nn2c(c1C1CCC(COC)(COC)CC1)CN(C(=O)C1(OC)CC1)CC2` [Example 14, (3-(4,4-bis(methoxymethyl)-cyclohexyl)-2-((methyl(2-(methylamino)ethyl)amino)-methyl)-6,7-dihydropyrazolo-[1,5-a]pyrazin-5(4H)-yl)(1-methoxycyclopropyl)-methanone], the pIC50 at PRMT1 [1] is 6.91; in the assay on PATC53 cells, 6.32; in the assay on DOHH2 cells, 6.68; at PRMT1 [2] it was 7.03.

On to `CNCCN(C)Cc1nn2c(c1C1CCC(COC)(COC)CC1)CN(C(=O)C1(C#N)CC1)CC2` [Example 15, 1-(3-(4,4-bis(methoxy-methyl)cyclohexyl)-2-((methyl(2-(methylamino)-ethyl)amino)methyl)-4,5,6,7-tetrahydropyrazolo[1,5-a]-pyrazine-5-carbonyl)cyclopropane-1-carbonitrile], for which the pIC50 was 6.43 at PRMT1 [1], 6.14 in the assay on PATC53 cells, 6.68 with DOHH2 cells and 7.15 at PRMT1 [2].

Regarding `CNCCN(C)Cc1nn2c(c1C1CCC(COC)(COC)CC1)CN(C(=O)C1(C)COC1)CC2` [Example 16, (3-(4,4-bis(methoxymethyl)-cyclohexyl)-2-((methyl(2-(methylamino)ethyl)amino)-methyl)-6,7-dihydropyrazolo-[1,5-a]pyrazin-5(4H)-yl)(3-methyloxetan-3-yl)methanone], the negative-log IC50 (pIC50) on PRMT1 [1] was 6.43; in the assay on PATC53 cells it was 6.68; with DOHH2 cells it was 6.80; on PRMT1 [2], 7.19.

Turning to `CNCCN(C)Cc1nn2c(c1C1CCC(COC)(COC)CC1)CN(C(=O)C1(C(F)(F)F)CC1)CC2` [Example 18, (3-(4,4-bis(methoxymethyl)-cyclohexyl)-2-((methyl(2-(methylamino)ethyl)amino)-methyl)-6,7-dihydropyrazolo-[1,5-a]pyrazin-5(4H)-yl)(1-(trifluoro-methyl)cyclopropyl)-methanone], the negative logarithm of the IC50 (pIC50) was 6.86 at PRMT1 [1], 7.32 in the assay on PATC53 cells, 6.85 in the assay on DOHH2 cells and 7.22 at PRMT1 [2].

Regarding `CNCCN(C)Cc1nn2c(c1C1CCC(COC)(COC)CC1)CN(C(=O)C1(C)CCC1)CC2` [Example 19, (3-(4,4-bis(methoxymethyl)-cyclohexyl)-2-((methyl(2-(methylamino)ethyl)amino)-methyl)-6,7-dihydropyrazolo-[1,5-a]pyrazin-5(4H)-yl)(1-methylcyclobutyl)methanone], the negative logarithm of the IC50 (pIC50) on PRMT1 [1] was 6.67; in the assay on PATC53 cells, 7.43; with DOHH2 cells it was 7.06; on PRMT1 [2] it was 7.28.

`CNCCN(C)Cc1nn2c(c1C1CCC(COC)(COC)CC1)CN(C(=O)C13CC(C1)C3)CC2` [Example 20, bicyclo[1.1.1]pentan-1-yl(3-(4,4-bis(methoxymethyl)-cyclohexyl)-2-((methyl(2-(methylamino)ethyl)amino)-methyl)-6,7-dihydropyrazolo-[1,5-a]pyrazin-5(4H)-yl)-methanone]: the pIC50 is 6.62 at PRMT1 [1], 7.30 in the assay on PATC53 cells, 6.99 in the assay on DOHH2 cells and 7.21 on PRMT1 [2].

Turning to `CNCCN(C)Cc1nn2c(c1C1CCC(COC)(COC)CC1)CN(C(=O)C13CC(F)(C1)C3)CC2` [Example 21, (3-(4,4-bis(methoxymethyl)-cyclohexyl)-2-((methyl(2-(methylamino)ethyl)amino)-methyl)-6,7-dihydropyrazolo-[1,5-a]pyrazin-5(4H)-yl)(3-fluorobicyclo[1.1.1]pentan-1-yl)methanone], the negative-log IC50 (pIC50) on PRMT1 [1] was 6.73; in the assay on PATC53 cells it was 7.17; in the assay with DOHH2 cells, 7.02; on PRMT1 [2], 7.28.

Regarding `CNCCN(C)Cc1nn2c(c1C1CCC(COC)(COC)CC1)CN(C(=O)C1(C(C)(F)F)COC1)CC2` [Example 23, (3-(4,4-bis(methoxymethyl)-cyclohexyl)-2-((methyl(2-(methylamino)ethyl)amino)-methyl)-6,7-dihydropyrazolo-[1,5-a]pyrazin-5(4H)-yl)(3-(1,1-difluoroethyl)oxetan-3-yl)methanone], the negative logarithm of the IC50 (pIC50) was 6.42 at PRMT1 [1], 6.58 in the assay with PATC53 cells, 6.83 in the assay on DOHH2 cells and 6.86 at PRMT1 [2].

Regarding `CNCCN(C)Cc1nn2c(c1C1CCC(COC)(COC)CC1)CN(C(=O)C1CCOCC1)CC2` [Example 31, (3-(4,4-bis(methoxymethyl)-cyclohexyl)-2-((methyl(2-(methylamino)ethyl)amino)-methyl)-6,7-dihydropyrazolo-[1,5-a]pyrazin-5(4H)-yl)-(tetrahydro-2H-pyran-4-yl)-methanone], the negative logarithm of the IC50 (pIC50) was 6.23 with PATC53 cells, 6.69 in the assay on DOHH2 cells and 6.97 at PRMT1 [2].

As to `CNCCN(C)Cc1nn2c(c1C1CCC(COC)(COC)CC1)CN(C(=O)CC1CCOCC1)CC2` [Example 34, 1-(3-(4,4-bis(methoxy-methyl)cyclohexyl)-2-((methyl(2-(methylamino)-ethyl)amino)methyl)-6,7-dihydropyrazolo[1,5-a]-pyrazin-5(4H)-yl)-2-(tetrahydro-2H-pyran-4-yl)ethan-1-one], the figures for the negative-log IC50 (pIC50) in the assay on PATC53 cells, in the assay on DOHH2 cells and on PRMT1 [2] were 6.19, 6.70 and 6.91, respectively.

The term pIC50 denotes the negative decadic logarithm of the IC50, by convention in mol/L.
